ChEMBL document CHEMBL1201862, “PubChem BioAssay data set” (2004)
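Values below derive from 48-hour exposures of cells grown in 96-well plates, with endpoints linearly interpolated between the two concentrations bracketing the appropriate inhibition level. GI50 is the concentration that inhibits growth by half.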 The source made the active and inactive calls. Cut-off read from the data, not from the text of the source: active = GI50 up to about 1.1 µM and inactive = higher.

Assays:
Experiment in all cases: inhibition of tumour cell growth, NCI panel, 48 h
LOX IMVI = tested on: LOX IMVI
U-251 = tested on: U-251
EKVX = tested on: EKVX
NCI-H23 = tested on: NCI-H23
MDA-MB-231 = tested on: MDA-MB-231
NCI-H522 = tested on: NCI-H522
HCT-116 = tested on: HCT-116
NCI-H226 = tested on: NCI-H226
SN12C = tested on: SN12C
OVCAR-5 = tested on: OVCAR-5
HCT-15 = tested on: HCT-15
A498 = tested on: A498
Hs-578T = tested on: Hs-578T
MOLT-4 = tested on: MOLT-4
SF-268 = tested on: SF-268
SF-295 = tested on: SF-295
Malme-3M = tested on: Malme-3M
CAKI-1 = tested on: CAKI-1
HCC 2998 = tested on: HCC 2998
HL-60 = tested on: HL-60

Compound | GI50 (LOX IMVI) | GI50 (U-251) | GI50 (EKVX) | GI50 (NCI-H23) | GI50 (MDA-MB-231) | GI50 (NCI-H522) | GI50 (HCT-116) | GI50 (NCI-H226) | GI50 (SN12C) | GI50 (OVCAR-5) | GI50 (HCT-15) [µM] | GI50 (A498) | GI50 (Hs-578T) | GI50 (MOLT-4) | GI50 (SF-268) | GI50 (SF-295) | GI50 (Malme-3M) | GI50 (CAKI-1) | GI50 (HCC 2998) | GI50 (HL-60)
O=C(O)Cc1cccnc1 | > 100 µM (inactive) | > 100 µM (inactive) | > 100 µM (inactive) | > 100 µM (inactive) | > 100 µM (inactive) | > 100 µM (inactive) | > 100 µM (inactive) | > 100 µM (inactive) | > 100 µM (inactive) | > 100 µM (inactive) | > 100 | > 100 µM (inactive) | > 100 µM (inactive) | > 100 µM (inactive) | > 100 µM (inactive) | > 100 µM (inactive) | > 100 µM (inactive) | > 100 µM (inactive) | > 100 µM (inactive) | 
CC(C)OC(=O)[C@@H]1OC(C)(C)O[C@H]1C(=O)OC(C)C | > 100 µM (inactive) | > 100 µM (inactive) | > 100 µM (inactive) | > 100 µM (inactive) | > 100 µM (inactive) | > 100 µM (inactive) | > 100 µM (inactive) | > 100 µM (inactive) | > 100 µM (inactive) | > 100 µM (inactive) | > 100 | > 100 µM (inactive) | > 100 µM (inactive) | > 100 µM (inactive) | > 100 µM (inactive) | > 100 µM (inactive) | > 100 µM (inactive) | > 100 µM (inactive) | > 100 µM (inactive) | 
Cc1nc2ccccc2c(=O)n1NC(=O)Cc1ccccc1 | > 100 µM (inactive) | > 100 µM (inactive) | > 100 µM (inactive) | > 100 µM (inactive) | > 100 µM (inactive) | > 100 µM (inactive) | > 100 µM (inactive) | > 100 µM (inactive) | > 100 µM (inactive) | > 100 µM (inactive) |  | > 100 µM (inactive) | > 100 µM (inactive) | > 100 µM (inactive) | > 100 µM (inactive) | > 100 µM (inactive) | > 100 µM (inactive) |  | > 100 µM (inactive) | > 100 µM (inactive)
CCCCC(CCCC)=NNC(=S)SC | 27.3 µM (inactive) | 29.6 µM (inactive) | 87.3 µM (inactive) | 33.7 µM (inactive) | 28.3 µM (inactive) | 17.1 µM (inactive) | 17.4 µM (inactive) | 16.1 µM (inactive) | 34.2 µM (inactive) | 38.2 µM (inactive) | 34.2 | 39.4 µM (inactive) | 44.2 µM (inactive) | 18 µM (inactive) | 34.3 µM (inactive) |  | 13.1 µM (inactive) |  | 15.4 µM (inactive) | 20.7 µM (inactive)
N#CCCN(CCC#N)c1ccc(C(/N=N/c2ccccc2)=N\c2ccccc2)cc1 |  | > 100 µM (inactive) | > 100 µM (inactive) | > 100 µM (inactive) | > 100 µM (inactive) | 59.6 µM (inactive) | > 100 µM (inactive) | > 100 µM (inactive) | > 100 µM (inactive) | > 100 µM (inactive) | > 100 | > 100 µM (inactive) | > 100 µM (inactive) | > 100 µM (inactive) | > 100 µM (inactive) | > 100 µM (inactive) |  | > 100 µM (inactive) | > 100 µM (inactive) | 
CCN1C(=O)c2ccccc2C1(O)c1ccc(Cl)cc1 (centres undefined) | 51.4 µM (inactive) | 64.9 µM (inactive) | 33.3 µM (inactive) | 38.2 µM (inactive) | > 100 µM (inactive) |  | 37.7 µM (inactive) | 16.8 µM (inactive) | > 100 µM (inactive) | 88.1 µM (inactive) | > 100 | > 100 µM (inactive) | > 100 µM (inactive) | 47.3 µM (inactive) | 79.8 µM (inactive) | 18.4 µM (inactive) |  | > 100 µM (inactive) | > 100 µM (inactive) | 30 µM (inactive)
C[C@]1(O)O[C@@H]2OCC[C@@H]2C2=C1C(=O)c1ccccc1C2=O | 11.4 µM (inactive) | 15.2 µM (inactive) | 20 µM (inactive) | 14.7 µM (inactive) | 21.2 µM (inactive) | 16.6 µM (inactive) |  |  | 23 µM (inactive) | 17.3 µM (inactive) | 19 | 14.1 µM (inactive) | 30.3 µM (inactive) | 5.04 µM (inactive) | 12.8 µM (inactive) | 18.7 µM (inactive) | 15.9 µM (inactive) | 20.1 µM (inactive) | 17.3 µM (inactive) | 12.3 µM (inactive)
COc1cccc(C2c3cc4c(cc3OC3COC(=O)C32)OCO4)c1OC (centres undefined) | > 100 µM (inactive) |  | > 100 µM (inactive) |  | > 100 µM (inactive) |  | 20.2 µM (inactive) | > 100 µM (inactive) | > 100 µM (inactive) | > 100 µM (inactive) | 34.8 | > 100 µM (inactive) | 32.7 µM (inactive) | > 100 µM (inactive) | > 100 µM (inactive) | > 100 µM (inactive) | > 100 µM (inactive) | 37.6 µM (inactive) | > 100 µM (inactive) | 9.12 µM (inactive)
